Tests used:
CoaA [1] = biological target: T1, CoaA (Mycobacterium tuberculosis, UniProt P9WPA7)
CoaA [2] = biological target: T1, CoaA; assay: ADP-Glo luminescent kinase assay; format: biochemical; conditions: 5 mM ATP, 50 mM HEPES, 25 mM KCl, 20 mM MgCl2, 30 min

T1 sequence (P9WPA7 whole entry, looked up): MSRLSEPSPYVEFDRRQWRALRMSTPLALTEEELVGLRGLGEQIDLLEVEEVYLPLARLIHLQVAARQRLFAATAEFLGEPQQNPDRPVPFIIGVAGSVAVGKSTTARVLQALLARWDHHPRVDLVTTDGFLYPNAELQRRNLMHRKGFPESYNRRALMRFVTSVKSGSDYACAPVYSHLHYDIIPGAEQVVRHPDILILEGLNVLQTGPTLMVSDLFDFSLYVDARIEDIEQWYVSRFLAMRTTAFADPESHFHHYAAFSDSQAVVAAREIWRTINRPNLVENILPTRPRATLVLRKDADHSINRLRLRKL

SMILES | ADP-Glo luminescent kinase assay (CoaA [1]) | Michaelis-Menten curve, constant not given (CoaA [2])
Nc1ncnc2c1ncn2[C@@H]1O[C@H](COP(=O)(O)OP(=O)(O)OP(=O)(O)O)[C@@H](O)[C@H]1O [ATP] | CoaA showed robust ATPase activity | 
CC(C)(CO)[C@@H](O)C(=O)NCCC(=O)O [pantothenate] |  | CoaA showed robust ATPase activity
